Source: paper PMC8861095, “Neurotoxicological profile of the hallucinogenic compound 25I-NBOMe” (Scientific Reports, 2022)

Experiments:
[1] = test system: NeuN-, S100β- and IBA-1-immunopositive cells; assay: Immunohistochemistry with stereological count of cortical and hippocampal cells; format: in vivo, rat; conditions: chronic 0.3 mg/kg × 7 sc, 72 h, vs control
Protocol: (§1) Animals received single or multiple (once per day for seven days) subcutaneous injections of 25I-NBOMe dissolved in 0.9% NaCl at a dose of 0.3 mg/kg/2 ml. The control group was treated with 0.9% NaCl solution in the same way. All procedures were performed 72 h after the last injection. The time point of 72 h was chosen due to the possible generation of neurotoxicity via oxidative stress caused by reactive oxygen species (ROS). Exceptionally, for initial 25I-NBOMe brain distribution studies, rats received the drug in the dose of 1 and 10 mg/kg and were sacrificed 15 min after the drug administration. The rat blood plasma and brain tissues were collected immediately after rats’ decapitation. LSD (0.05 mg/kg, ip) was given daily for 7 days in a volume of 1 ml/kg, while MDMA 5 mg/kg, ip was injected in a volume of 2 ml/kg every second day (overall 4 injections).
Animals were deeply anesthetized and transcardially perfused with 0.9% NaCl followed by 4% paraformaldehyde (PFA) in 0.1 M phosphate-buffered saline (PBS). After 24 h of fixation in 4% PFA (4 °C), 300 µm sections were cut through the frontal cortex (FC) and medial prefrontal cortex (mPFC) as well as hippocampus using a VT-1000S vibratome (Leica Microsystems, Heidelberg, Germany). Free-floating sections were processed for single staining of neurons with neuronal-specific nuclear protein (NeuN), glia with specific calcium-binding protein B (S100β), and microglia cells with ionized calcium-binding adaptor molecule 1 (IBA-1) antibodies. Subsequently, brain sections were rinsed and incubated for 1 h in a blocking buffer: 0.01 M PBS containing 0.3% Triton X-100 and 5% average horse, goat, or rabbit serum. After that, the sections were incubated for 48 h at 4 °C with one of the following primary antibodies: monoclonal anti-NeuN (1:1000), monoclonal anti-S100β-subunit (1:1000) or polyclonal IBA-1 (1:500) diluted in 0.01 M PBS containing 0.3% Triton X-100 (PBST) and 3% average horse or goat serum. Primary antibody binding was visualized with biotinylated secondary antibodies, the Avidin/Biotin Complex (Vectastain Elite ABC Kit) according to recommended by manufacturer concentration and 3,3′-diaminobenzidine tetrahydrochloride (DAB, 10 mg/50 ml and 0.025% H2O2) solution to give a brown color to NeuN, S100β and IBA-1-immunoreactive cells. For data presentation, digital images were captured using a digital camera CX 9000 (Bioscience Microbrightfield, Inc., Germany) attached to a Leica microscope (CTR 6000) with 2.5 and 5.0 dry or 63 × and 100 × oil objectives (Leica) that was controlled by Stereo Investigator software (v.8.10.2, 1995–2007 Bioscience Microbrightfield, Inc., Germany). The final photomicrographs were composed using the Adobe Photoshop program. The numbers of NeuN-, S100β- and IBA-1-immunopositive cells in the analyzed brain regions were estimated using unbiased stereological methods[35],[36]. Briefly, every sixth section from the systematic random sampling along the rostrocaudal axis was analyzed with a 63 ×/1.4–0.7 lens using the Stereo Investigator stereology system software. The cells appearing in the upper focal plane were omitted to prevent the counting of cell caps (− 5 μm of the topmost surface of the section). Immunopositive cells were marked when they were within the optical dissectors, which comprised a focal plane of 1600 μm^2 × 15 μm. The total numbers of NeuN, S100β- and IBA-1-immunopositive cells in the FC, mPFC, and hippocampus were automatically calculated by the Stereo Investigator software. In addition, the volume of the cortical regions and hippocampus was calculated using the Cavalieri Estimator option of the Stereo Investigator software.

apoptosis = assay: TUNEL assay for apoptotic signal in brain slices; format: in vivo, rat; conditions: frontal cortex, anterior and posterior hippocampus; acute or chronic (× 7) 0.3 mg/kg; 72 h after treatment; qualitative
Protocol: as §1
As described above, animals were perfused transcardially and brains were fixed overnight in 4% PFA, then gradually dehydrated and stored in 70% ethanol (EtOH). Paraffin-embedded brain tissue was sectioned on a microtome (Leica, RM45) for 7-µm-thick sections. […] The apoptotic signal was assessed using Click-iT™ Plus TUNEL Assay for in situ apoptosis detection with Alexa Fluor™ 488 picolyl azide dye. […] Stained slides were examined under a fluorescence microscope (Nikon Eclipse50i, Japan) equipped with a camera and NIS Elements software.

[2] = test system: p21 (CDC42/RAC)-activated kinase 1 (PAK1); design: method as in PMID 32597268; conditions: cited from earlier work
[3] = test system: BrdU+ cells and BrdU/NeuN+ neurons in the hippocampus; conditions: doses 0.1, 0.3, and 1 mg/kg; vs control rats; cited from earlier work
H9c2 cells = conditions: in vitro; cited from earlier work
[4] = test system: primary mice cardiomyocytes; conditions: in vitro; cited from earlier work
QT interval = conditions: electrocardiography in rats; cited from earlier work
[5] = medial prefrontal cortex (mPFC)

COc1cc(CCNCc2ccccc2OC)c(OC)cc1I [25I-NBOMe, 4-Iodo-2,5-dimethoxy-N-(2-methoxybenzyl)phenethylamine]
Number of IBA-1-immunopositive cells (microglia) ([1]; frontal cortex (FC)): significantly decreased
Number of NeuN cells (neurons) ([1]; frontal cortex (FC)): did not notice any significant change
Number of S100β-immunopositive cells (astrocytes) ([1]; frontal cortex (FC)): significantly decreased
Number of neuronal and glial cells ([1]; hippocampal regions CA1, CA3/CA2 and dentate gyrus): did not show any changes
Number of NeuN cells (neurons) [1, 5]: did not notice any significant change
Number of S100β-immunopositive cells (astrocytes) [1, 5]: significant decrease
Apoptotic signal (TUNEL) (apoptosis): did not indicate apoptotic signal
In vitro activity of PAK1 [2]: reduced
Number of surviving BrdU+ cells and BrdU/NeuN+ neurons in the hippocampus [3]: significantly decreased
Cell viability (H9c2 cells): decreased the viability
Cell viability [4]: decreased the viability
QT interval (QT interval): prolonged
